According to US10538535B2, “Antitumoral compounds” (priority 2017, dated 2020):
Like-named read-outs stand apart in the source and are kept apart here.

Legend:
MDA-MB-231 tumors = details: iv, 3 mg/kg
Description: (§2) Female athymic nu/nu mice (Harlan Laboratories Models, S. L. Barcelona, Spain or Envigo, Spain) were utilized for all experiments. Animal were housed in individually ventilated cages Sealsafe® Plus, Techniplast S.P.A.), up to ten per cage on a 12-hour light-dark cycle at 21-23° C. and 40-60% humidity. […] Animals were acclimated for at least 5 days prior to tumor implantation with a tumor cell suspension.
MDA-MB-231 cells were maintained in vitro at 37° C. with 5% CO2 in Dulbecco's Modified Eagle's Medium (Sigma-Aldrich, Co). Culture cells were passaged every 3 to 5 days upon reaching confluence.
(§3) Treatment tolerability was assessed by monitoring body weight evolution, clinical signs of systemic toxicity, as well as evidences of local damage in the injection site.
(§4) In xenograft studies with other cell lines: • Tumor volume was calculated using the equation (a·b^2)/2, where a: length (longest diameter) and b: width (shortest diameter) were measured in mm by using digital caliper (Fowler Sylvac, S235PAT).
(§5) Treatments producing >20% lethality and/or 20% net body weight loss were considered toxic.

H526 tumors = assay: In vivo xenograft, human lung (SCLC) H526; details: iv weekly, 39-S […], C 3 mg/Kg
A2780 tumors = details: iv, 3 mg/kg
Description: as §2
Culture cells were passaged every 3 to 5 days upon reaching confluence. Each animal was subcutaneously implanted (on the right flank using 26 G needle and a 1 cc syringe) at 4-6 weeks of age with 10×10^6 A2780 cells suspended in 0.05 mL of a solution consisting of 50% Matrigel® (Corning Incorporated Life Sciences) and 50% medium without serum or antibiotics.
as §3, §4, §5

H82 tumors = assay: In vivo xenograft, human lung (SCLC) H82; details: iv weekly, 39-S […], C 3 mg/Kg
Description: Female athymic nu/nu mice (Harlan Laboratories Models, S. L. Barcelona, Spain or Envigo, Spain) were utilized for all experiments. Animal were housed in individually ventilated cages Sealsafe® Plus, Techniplast S.P.A.), up to ten per cage on a 12-hour light-dark cycle at 21-23° C. and 40-60% humidity. Mice were allowed free access to irradiated standard rodent diet (Tecklad 2914C) and sterilized water. Animals were acclimated for at least 5 days prior to tumor implantation with a tumor cell suspension.
H82 cells were grown as a suspension and maintained by addition of fresh medium, as the cell density increases, every 2 to 3 days. Every week, culture was reestablished by centrifugation of the suspension with subsequent resuspension in fresh medium at a concentration of 1×10^5 cell/ml. Animals were subcutaneously implanted (on the right flank using 26 G needle and a 1 cc syringe) at 4-6 weeks of age with 5×10^6 H82 cells, suspended in 0.05 mL of a solution consisting of 50% Matrigel® (Corning Incorporated Life Sciences) and 50% medium without serum or antibiotics.
as §3, §4, §5
Tables and figures summarize the data obtained from complete experimental groups, i.e. those groups keeping the initial number of animals, n=8-10.

H460 tumors = details: iv, 3 mg/kg
Description: as §2
H460 cells were maintained in vitro at 37° C. with 5% CO2 in Dulbecco's Modified Eagle's Medium (Sigma-Aldrich, Co). Culture cells were passaged every 3 to 5 days upon reaching confluence. Each animal was subcutaneously implanted (on the right flank using 26 G needle and a 1 cc syringe) at 4-6 weeks of age with 5×10^6 H460 cells suspended in 0.05 mL of a solution consisting of 50% Matrigel® (Corning Incorporated Life Sciences) and 50% medium without serum or antibiotics.
as §3, §5

MDA-MB-231 cells = assay: cells; details: Homo sapiens, MDA-MB-231, 72 h
Outline: (§1)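 5000 cells/well, 18 h attachment; 72 h compound treatment (1% DMSO final, 10–0.003 μg/mL); fixation in 1% glutaraldehyde, 0.4% SRB stain; NCI algorithm, 4-parameter logistic fit.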

A549 cells = assay: cells; details: Homo sapiens, A549, 72 h
Outline: as §1

PSN1 cells = assay: cells; details: Homo sapiens, PSN1, 72 h
Outline: as §1

HT29 cells = assay: cells; details: Homo sapiens, HT-29, 72 h
Outline: as §1

Which “Median Tumor Volume” value (MDA-MB-231 tumors; 0 h) does the source give for `COc1c(C)cc2c(c1O)[C@@H]1[C@@H]3[C@@H]4SC[C@]5(N[C@H](C)Cc6c5[nH]c5ccccc65)C(=O)OC[C@@H](c5c6c(c(C)c(OC(C)=O)c54)OCO6)N3[C@@H](O)[C@H](C2)N1C` [C] here?
The value was 149.4 mm^3.

And the “Median Tumor Volume” value (MDA-MB-231 tumors; 48 h)?
The value was 217.1 mm^3.

What about the “Median Tumor Volume” value (MDA-MB-231 tumors; 120 h) of the same compound?
The value was 281.3 mm^3.

What about the “Median Tumor Volume” value (MDA-MB-231 tumors; 168 h) of the same compound?
The value was 338.6 mm^3.

And the “Median Tumor Volume” value (MDA-MB-231 tumors; 336 h)?
Its value is 436.9 mm^3.

What about the “Median Tumor Volume” value (MDA-MB-231 tumors; 384 h) of the same compound?
The value was 585.7 mm^3.

And the “Median Tumor Volume” value (MDA-MB-231 tumors; 456 h)?
The value was 774.7 mm^3.

What about the “Median Tumor Volume” value (MDA-MB-231 tumors; 504 h) of the same compound?
The value was 965.9 mm^3.

And the “Median Tumor Volume” value (MDA-MB-231 tumors; 552 h)?
Its value is 1215.2 mm^3.

What about the “Median Tumor Volume” value (MDA-MB-231 tumors; 672 h) of the same compound?
The value was 1785.3 mm^3.

And the “Median Tumor Volume” value (MDA-MB-231 tumors; 720 h)?
The value was 2037.1 mm^3.

And the “Median Tumor Volume” value (H526 tumors; Table 49, Day 0)?
Its value is 217.9 mm^3.

And the “Median Tumor Volume” value (H526 tumors; Table 49, Day 2)?
Its value is 262.4 mm^3.

What about the “Median Tumor Volume” value (H526 tumors; Table 49, Day 4) of the same compound?
The value was 108.3 mm^3.

And the “Median Tumor Volume” value (H526 tumors; Table 49, Day 7)?
Its value is 129.8 mm^3.

And the “Median Tumor Volume” value (H526 tumors; Table 49, Day 9)?
The value was 85.9 mm^3.

What about the “Median Tumor Volume” value (H526 tumors; Table 49, Day 11) of the same compound?
The value was 52.3 mm^3.

What about the “Median Tumor Volume” value (H526 tumors; Table 49, Day 14) of the same compound?
The value was 54.1 mm^3.

And the “Median Tumor Volume” value (H526 tumors; Table 49, Day 16)?
The value was 47.3 mm^3.

And the “Median Tumor Volume” value (H526 tumors; Table 49, Day 21)?
Its value is 4.0 mm^3.

And the “Median Tumor Volume” value (H526 tumors; Table 49, Day 28)?
The value was 4.0 mm^3.

And the “Median Tumor Volume” value (H526 tumors; Table 49, Day 35)?
The value was 4.0 mm^3.

What about the “Median Tumor Volume” value (H526 tumors; Table 49, Day 42) of the same compound?
Its value is 62.5 mm^3.

And the “Median Tumor Volume” value (H526 tumors; Table 49, Day 49)?
The value was 53.5 mm^3.

And the “Median Tumor Volume” value (H526 tumors; Table 49, Day 56)?
The value was 70.0 mm^3.

And the “Median Tumor Volume” value (H526 tumors; Table 49, Day 63)?
The value was 132.3 mm^3.

What about the “Median Tumor Volume” value (H526 tumors; Table 49, Day 70) of the same compound?
Its value is 368.5 mm^3.

What about the “Median Tumor Volume” value (H526 tumors; Table 49, Day 77) of the same compound?
Its value is 465.8 mm^3.

What about the “Median Tumor Volume” value (H526 tumors; Table 49, Day 84) of the same compound?
The value was 107.4 mm^3.

And the “Median Tumor Volume” value (H526 tumors; Table 49, Day 91)?
The value was 130.0 mm^3.

What about the “Median Tumor Volume” value (H526 tumors; Table 49, Day 98) of the same compound?
The value was 4.0 mm^3.

And the “Median Tumor Volume” value (H526 tumors; Table 49, Day 105)?
The value was 4.0 mm^3.

What about the “Median Tumor Volume” value (H526 tumors; Table 49, Day 112) of the same compound?
Its value is 4.0 mm^3.

And the “Median Tumor Volume” value (H526 tumors; Table 49, Day 119)?
Its value is 4.0 mm^3.

And the “Median Tumor Volume” value (H526 tumors; Table 49, Day 126)?
Its value is 4.0 mm^3.

And the “Median Tumor Volume” value (H526 tumors; Table 49, Day 133)?
The value was 4.0 mm^3.

What about the “Median Tumor Volume” value (H526 tumors; Table 49, Day 140) of the same compound?
The value was 4.0 mm^3.

And the “Median Tumor Volume” value (H526 tumors; Table 49, Day 147)?
The value was 4.0 mm^3.

What about the “Median Tumor Volume” value (H526 tumors; Table 49, Day 165) of the same compound?
Its value is 4.0 mm^3.

And the “Median Tumor Volume” value (H526 tumors; Table 49, Day 175)?
Its value is 4.0 mm^3.

What about the “Median Tumor Volume” value (H526 tumors; Table 49, Day 191) of the same compound?
Its value is 4.0 mm^3.

And the “Median Tumor Volume” value (H526 tumors; Table 49, Day 205)?
The value was 4.0 mm^3.

And the “Median Tumor Volume” value (A2780 tumors; 0 h)?
The value was 169.6 mm^3.

What about the “Median Tumor Volume” value (A2780 tumors; 48 h) of the same compound?
The value was 206.3 mm^3.

What about the “Median Tumor Volume” value (A2780 tumors; 120 h) of the same compound?
The value was 372.7 mm^3.

And the “Median Tumor Volume” value (A2780 tumors; 168 h)?
Its value is 607.6 mm^3.

And the “Median Tumor Volume” value (A2780 tumors; 336 h)?
The value was 1293.9 mm^3.

And the “Median Tumor Volume” value (A2780 tumors; 384 h)?
Its value is 1683.5 mm^3.

What about the “Median Tumor Volume” value (A2780 tumors; 456 h) of the same compound?
The value was 2137.5 mm^3.

What about the “Median Tumor Volume” value (H82 tumors; Table 50, Day 0) of the same compound?
The value was 170.5 mm^3.

And the “Median Tumor Volume” value (H82 tumors; Table 50, Day 2)?
Its value is 265.3 mm^3.

What about the “Median Tumor Volume” value (H82 tumors; Table 50, Day 5) of the same compound?
The value was 488.7 mm^3.

What about the “Median Tumor Volume” value (H82 tumors; Table 50, Day 7) of the same compound?
Its value is 760.0 mm^3.

What about the “Median Tumor Volume” value (H82 tumors; Table 50, Day 9) of the same compound?
The value was 899.5 mm^3.

What about the “Median Tumor Volume” value (H82 tumors; Table 50, Day 12) of the same compound?
The value was 1038.5 mm^3.

And the “Median Tumor Volume” value (H82 tumors; Table 50, Day 14)?
The value was 1213.4 mm^3.

What about the “Median Tumor Volume” value (H82 tumors; Table 50, Day 16) of the same compound?
Its value is 1256.4 mm^3.

What about the “Median Tumor Volume” value (H82 tumors; Table 50, Day 19) of the same compound?
The value was 1741.5 mm^3.

And the “Median Tumor Volume” value (H82 tumors; Table 50, Day 21)?
The value was 1878.8 mm^3.

What about the “Median Tumor Volume” value (H82 tumors; Table 50, Day 23) of the same compound?
Its value is 2057.0 mm^3.

What about the “Median Tumor Volume” value (H460 tumors; 0 h) of the same compound?
The value was 186.1 mm^3.

What about the “Median Tumor Volume” value (H460 tumors; 48 h) of the same compound?
Its value is 395.4 mm^3.

And the “Median Tumor Volume” value (H460 tumors; 120 h)?
Its value is 665.9 mm^3.

What about the “Median Tumor Volume” value (H460 tumors; 168 h) of the same compound?
Its value is 929.5 mm^3.

What about the “Median Tumor Volume” value (H460 tumors; 336 h) of the same compound?
Its value is 2025.0 mm^3.

What about the “Median Tumor Volume” value (H460 tumors; 384 h) of the same compound?
The value was 2025.0 mm^3.

What about the GI50 (MDA-MB-231 cells) of the same compound?
Its GI50 is 26 nM.

And the CC50 (MDA-MB-231 cells; read-out: LC50)?
The CC50 was greater than 130 nM.

What about the IC (TGI) (MDA-MB-231 cells; read-out: TGI) of the same compound?
The IC (TGI) was 54.6 nM.

And the GI50 (A549 cells)?
Its GI50 is 27.3 nM.

What about the CC50 (A549 cells; read-out: LC50) of the same compound?
The CC50 was greater than 130 nM.

What about the IC (TGI) (A549 cells; read-out: TGI) of the same compound?
Its IC (TGI) is 66.3 nM.

And the GI50 (PSN1 cells)?
Its GI50 is 36.4 nM.

And the CC50 (PSN1 cells; read-out: LC50)?
Its CC50 is 65 nM.

What about the IC (TGI) (PSN1 cells; read-out: TGI) of the same compound?
Its IC (TGI) is 44.2 nM.

And the GI50 (HT29 cells)?
Its GI50 is 20.8 nM.

What about the CC50 (HT29 cells; read-out: LC50) of the same compound?
Its CC50 is greater than 130 nM.

And the IC (TGI) (HT29 cells; read-out: TGI)?
Its IC (TGI) is 23.4 nM.
